This note sets out measurements from publication PMC11009625, “Antibiotic class with potent in vivo activity targeting lipopolysaccharide synthesis in Gram-negative bacteria” (Proceedings of the National Academy of Sciences of the …, 2024).

The experiment deals with T1, E. coli LpxH (Escherichia coli, UniProt P43341).
T1 construct: His6 (C); made in house; host or cells: E. coli BL21-AI (pET-26b(+), synthetic gene from GenScript)
The experiment in a line: MBP-AaLpxE-coupled LpxH activity assay (malachite green). The settings on record: read-out: E. coli LpxH enzyme inhibition IC50. Format: biochemical. The procedure: E. coli-optimized EcLpxH and KpLpxH sequences, cloned into a pET-26b(+) vector (Novagene) using NdeI/XhoI restriction sites, were ordered from GenScript Biotech (the Netherlands), giving constructs with a His6-tag at the C-terminal end, and bearing kanamycin resistance. Competent E. coli BL21-AI cells (Invitrogen) were transformed and grown at 37 °C in Luria broth containing 50 μg/mL kanamycin to an OD600 of 0.5 to 1.0, then induced for 2 to 3 h by adding IPTG and L-arabinose to final concentrations of 0.5 mM and of 2 mg/mL, respectively. Harvested cells were lysed in a One-Shot cell disrupter (Constant Systems Ltd., UK) in 20 mM Tris-HCl pH 8.0, 300 mM NaCl, 20 mM imidazole, 4 M urea, 5% (v/v) glycerol, 0.01 mg/mL RNase A and 0.02 mg/mL DNase, plus cOmplete, EDTA-free protease inhibitor cocktail (Roche). Proteins were purified using Ni-nitrilotriacetic acid agarose (Qiagen), HiTrap Heparin HP affinity chromatography (Cytiva), and HiLoad 16/60 Superdex 200 chromatography (Amersham Biosciences). Final samples were concentrated to 15 mg/mL protein and stored in aliquots in 20 mM Tris-HCl (pH 8.0) containing 300 mM NaCl and 2 mM DTT at −80 °C. Assays were performed essentially as described by ref. [26]. Additional assay details are available in SI Appendix.
Cloning, expression and purification of LpxHs. E. coli-optimized EcLpxH and KpLpxH sequences, cloned into a pET-26b(+) vector (Novagene) using NdeI/XhoI restriction sites, were ordered from GenScript Biotech (the Netherlands), giving constructs with a His6-tag at the C-terminal end, and bearing kanamycin resistance. The correctness of the sequences was verified by DNA sequencing. Competent E. coli BL21-AI cells (Invitrogen) were transformed with the resulting plasmids for protein production.
Cultures of 8 L of Luria broth containing 50 μg/mL kanamycin were grown at 37 °C to an OD600 of 0.5-1.0, then induced by adding IPTG to a final concentration of 0.5 mM and L-arabinose to a final concentration of 2 mg/ml. After 2-3 h of incubation at 37 °C, cells were harvested by centrifugation, and the pellet was resuspended in lysis buffer (20 mM Tris-HCl pH 8.0, 300 mM NaCl, 20 mM imidazole, 4 M urea, 5% (v/v) glycerol, 0.01 mg/mL RNase A and 0.02 mg/mL DNase, plus one tablet of cOmplete, EDTA-free cocktail protease inhibitor cocktail (Roche)).
Cells were lysed using a One-Shot cell disrupter (Constant Systems Ltd., UK). The lysate was spun down and the soluble fraction containing LpxH was incubated at 4 °C overnight with 1.5 mL pre-equilibrated Ni-nitrilotriacetic acid agarose (Qiagen) slurry using the same buffer. The column was then washed in steps of 30 column volumes with lysis buffer (without RNase A, DNase and protease inhibitor) containing 3, 2, 1, 0.5 and 0 M of urea. The protein was then eluted with eight column volumes of 500 mM imidazole in the same buffer. Fractions containing the desired protein as judged by SDS gels were pooled and purified on a HiTrap Heparin HP affinity column (Cytiva) (loading buffer 20 mM Tris-HCl, pH 8.0 and 5% glycerol, 2 mM DTT; elution buffer 20 mM Tris-HCl, pH 8.0 and 5% glycerol, 1 M NaCl, 2 mM DTT) and further applied to a HiLoad 16/60 Superdex 200 preparative grade column (Amersham Biosciences) pre-equilibrated with 20 mM Tris-HCl, pH 8.0, 300 mM NaCl, 5% glycerol, 2 mM
DTT. […]
for EcLpxH2 and KpLpxH, respectively, calculated using the ProtParam tool(1) were analyzed by SDS PAGE and stored in 20 mM Tris-HCl (pH 8.0) containing 300 mM NaCl and 2 mM DTT at -80 […]

The pIC50 is −log10 of the IC50, conventionally taken in molar units.

pIC50: −log10 of the molar value.

T1 sequence (P43341 whole entry): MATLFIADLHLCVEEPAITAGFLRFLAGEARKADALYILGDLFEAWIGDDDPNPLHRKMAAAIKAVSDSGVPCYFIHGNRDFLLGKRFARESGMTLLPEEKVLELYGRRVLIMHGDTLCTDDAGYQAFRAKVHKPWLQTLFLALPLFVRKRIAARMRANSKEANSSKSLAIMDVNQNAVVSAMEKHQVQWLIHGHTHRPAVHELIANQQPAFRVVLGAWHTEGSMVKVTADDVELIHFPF

As to `CC(=O)N1CCc2cc(S(=O)(=O)N3CCN(c4cccc(C(F)(F)F)c4)CC3)ccc21` [AZ1, reference compound], the pIC50 is 6.28.

Take `CN(c1ccccc1C(=O)Nc1ccc(S(=O)(=O)N2CCN(c3cccc(C(F)(F)F)c3)CC2)cc1)S(C)(=O)=O` [JEDI-1444]: the pIC50 is 8.59.

Regarding `Cc1cc(C#N)nc(N2CCN(S(=O)(=O)c3ccc(NC(=O)c4ccccc4N(C)S(C)(=O)=O)cc3)CC2)n1` [EBL-3339], the pIC50 is 8.82.

As to `CN(c1ccccc1C(=O)Nc1ccc(S(=O)(=O)N2CCCCC2)cc1)S(C)(=O)=O` [JEDI-852], the pIC50 was 5.89.

On to `CN(c1ccc(CNCCN)cc1C(=O)Nc1ccc(S(=O)(=O)N2CCN(c3cc(Cl)cc(Cl)c3)CC2)cc1)S(C)(=O)=O` [EBL-3025], for which the negative-log IC50 (pIC50) is 8.47.
